According to patent US8796253B2, “Heteroaryl substituted pyrazole derivatives useful for treating hyper-proliferative disorders and diseases associated with angiogenesis” (Bayer Intellectual Property GmbH, priority 2007, dated 2014):

system: HCT-116 cells stably transfected with a Luciferase reporter gene under the control of HIF-responsive element; assay: HIF-Luciferase Assay; format: cell-based; details: Homo sapiens, HCT-116, HIF-Luciferase Assay, HCT-116 reporter cells, overnight at 1% oxygen; group >10, unit inferred
Experimental: HCT-116 cells stably transfected with a Luciferase reporter gene under the control of HIF-responsive element were plated in white 96- or 384-well plates at 30,000 or 5,000 cells/well, respectively, in 50 μL/well media (RPMI with 10% fetal bovine serum and 100 μg/mL Hygromycin). Cells were incubated overnight at 37° C. in a humidified incubator containing 5% CO2 under normal oxygen. The next day test compounds were added to the wells at various concentrations (0-10 μM, 0.1% final DMSO concentration) and placed in a hypoxic chamber overnight at 1% oxygen. Following the exposure to hypoxic conditions, 50 μL/well of Bright Glo reagent (Promega, Wisconsin, USA) was added to the wells and luminescence was measured after 5 min. Cells incubated under normal oxygen levels were used as background control. […] Compounds that have IC50 values between 1 μM and 10 μM include those of Examples 8, 16, 38, 39, 40, 41, 42, 43, 47, 48, 53, 54, 56, 57, 66, 69, and 72.

IC50, > 10 µM:
Cc1ccc(Cn2nc(C3=NC(c4ccc(C(C)(C)C)cc4)CO3)cc2C)cc1 (centres unmarked) [Example 70, 4-(4-tert-butylphenyl)-2-[5-methyl-1-(4-methylbenzyl)-1H-pyrazol-3-yl]-4,5-dihydro-1,3-oxazole]
Cc1ccc(Cn2nc(-c3nc(-c4ccc(F)c(Br)c4)no3)cc2C)cc1 [Example 15, 3-(3-bromo-4-fluorophenyl)-5-[5-methyl-1-(4-methylbenzyl)-1H-pyrazol-3-yl]-1,2,4-oxadiazole]
Cc1ccc(Cn2nc(-c3nc4ccc(N5CCN(C)CC5)cc4[nH]3)cc2C)cc1 [Example 50, 2-[5-methyl-1-(4-methylbenzyl)-1H-pyrazol-3-yl]-6-(4-methylpiperazin-1-yl)-1H-benzimidazole]
Cc1ccc(Cn2nc(C3=NC(C(C)C)CO3)cc2C)cc1 (centres unmarked) [Example 71, 4-isopropyl-2-[5-methyl-1-(4-methylbenzyl)-1H-pyrazol-3-yl]-4,5-dihydro-1,3-oxazole]

same assay, conditions: Homo sapiens, HCT-116, HIF-Luciferase Assay, HCT-116 reporter cells, overnight at 1% oxygen; individual values

IC50, 0.05 µM:
Cc1ccc(Cn2nc(-c3nc(-c4ccc(C5CCCCC5)cc4)co3)cc2C)cc1 [Example 81, 4-(4-Cyclohex-1-ylphenyl)-2-[5-methyl-1-(4-methylbenzyl)-1H-pyrazol-3-yl]-1,3-oxazole]

IC50, 0.01 µM:
Cc1ccc(Cn2nc(-c3nc(-c4ccc(C(C)(C)F)cc4)no3)cc2C)cc1 [Example 103, 3-[4-(1-fluoro-1-methylethyl)phenyl]-5-[5-methyl-1-(4-methylbenzyl)-1H-pyrazol-3-yl]-1,2,4-oxadiazole]

IC50, 0.005 µM:
Cc1ccc(Cn2nc(-c3nc(-c4ccc(C(C)(C)C)cc4)no3)cc2C)cc1 [Example 4, 3-(4-tert-butylphenyl)-5-[5-methyl-1-(4-methylbenzyl)-1H-pyrazol-3-yl]-1,2,4-oxadiazole]

IC50, 0.006 µM:
Cc1ccc(Cn2nc(-c3nc(-c4ccc(C5CCCCC5)cc4)c[nH]3)cc2C)cc1 [Example 68, 3-[4-(4-cyclohexylphenyl)-1H-imidazol-2-yl]-5-methyl-1-(4-methylbenzyl)-1H-pyrazole]

IC50, 0.02 µM:
Cc1cc(-c2nc(-c3ccc(OC(F)(F)F)cc3)no2)nn1Cc1ccc(Cl)cc1 [Example 120, 5-[1-(4-Chlorobenzyl)-5-methyl-1H-pyrazol-3-yl]-3-[4-(trifluoromethoxy)phenyl]-1,2,4-oxadiazole]

IC50, 0.008 µM:
Cc1ccc(Cn2nc(-c3nc(-c4ccc(-c5ccccc5)cc4)c[nH]3)cc2C)cc1 [Example 67, 3-(4-biphenyl-4-yl-1H-imidazol-2-yl)-5-methyl-1-(4-methylbenzyl)-1H-pyrazole]

same assay, conditions: Homo sapiens, HCT-116, HIF-Luciferase Assay, HCT-116 reporter cells, overnight at 1% oxygen; potency groups

IC50, 1 to 10 µM:
Cc1ccc(Cn2nc(-c3nc4ccc(C#N)cc4[nH]3)cc2C)cc1 [Example 54, 2-[5-methyl-1-(4-methylbenzyl)-1H-pyrazol-3-yl]-1H-benzimidazole-6-carbonitrile]
Cc1ccc(C(C)n2nc(-c3nc(-c4ccc(Br)cc4)no3)cc2C)cc1 (centres unmarked) [Example 8, 3-(4-bromophenyl)-5-{5-methyl-1-[1-(4-methylphenyl)ethyl]-1H-pyrazol-3-yl}-1,2,4-oxadiazole]
Cc1ccc(Cn2nc(C3=NC(Cc4ccc(Cl)cc4)CO3)cc2C)cc1 (centres unmarked) [Example 72, 4-(4-chlorobenzyl)-2-[5-methyl-1-(4-methylbenzyl)-1H-pyrazol-3-yl]-4,5-dihydro-1,3-oxazole]
Cc1ccc(Cn2nc(-c3nc4ccc(C(C)(C)C)cc4[nH]3)cc2C)cc1 [Example 43, 6-tert-butyl-2-[5-methyl-1-(4-methylbenzyl)-1H-pyrazol-3-yl]-1H-benzimidazole]
Cc1ccc(Cn2nc(C3=NC(c4ccccc4)CO3)cc2C)cc1 (centres unmarked) [Example 69, 2-[5-Methyl-1-(4-methylbenzyl)-1H-pyrazol-3-yl]-4-phenyl-4,5-dihydro-1,3-oxazole]
Cc1ccc(Cn2nc(-c3nc4c(C)cccc4[nH]3)cc2C)cc1 [Example 40, 4-methyl-2-[5-methyl-1-(4-methylbenzyl)-1H-pyrazol-3-yl]-1H-benzimidazole]
Cc1ccc(Cn2nc(-c3nc4ccncc4[nH]3)cc2C)cc1 [Example 42, 2-[5-methyl-1-(4-methylbenzyl)-1H-pyrazol-3-yl]-3H-imidazo[4,5-c]pyridine]
Cc1ccc(Cn2nc(-c3nc(-c4cccnc4)no3)cc2C)cc1 [Example 16, 3-{5-[5-methyl-1-(4-methylbenzyl)-1H-pyrazol-3-yl]-1,2,4-oxadiazol-3-yl}pyridine]

IC50, ≤ 1 µM:
Cc1ccc(Cn2nc(-c3nc4cc5oc6ccccc6c5cc4[nH]3)cc2C)cc1 [Example 52, 2-[5-methyl-1-(4-methylbenzyl)-1H-pyrazol-3-yl]-1H-[1]benzofuro[2,3-f]benzimidazole]
COCC(=O)Nc1ccc(-c2noc(-c3cc(C)n(Cc4ccc(C)cc4)n3)n2)cc1 [Example 27, 2-methoxy-N-(4-{5-[5-methyl-1-(4-methylbenzyl)-1H-pyrazol-3-yl]-1,2,4-oxadiazol-3-yl}phenyl)acetamide]
Cc1ccc(Cn2nc(-c3nc(-c4ccc(C5CCCCC5)cc4)c[nH]3)cc2C)cc1 [Example 68, 3-[4-(4-cyclohexylphenyl)-1H-imidazol-2-yl]-5-methyl-1-(4-methylbenzyl)-1H-pyrazole]
Cc1ccc(Cn2nc(-c3nc(-c4ccc(OC(F)(F)F)cc4)c[nH]3)cc2C)cc1 [Example 65, 5-Methyl-1-(4-methylbenzyl)-3-{4-[4-(trifluoromethoxy)phenyl]-1H-imidazol-2-yl}-1H-pyrazole]
Cc1ccc(Cn2nc(-c3nc4cc(-c5ccccc5F)ccc4o3)cc2C)cc1 [Example 35, 5-(2-fluorophenyl)-2-[5-methyl-1-(4-methylbenzyl)-1H-pyrazol-3-yl]-1,3-benzoxazole]
Cc1ccc(Cn2nc(-c3nc(-c4ccc(C(C)(C)C)cc4)no3)cc2C)cc1 [Example 4, 3-(4-tert-butylphenyl)-5-[5-methyl-1-(4-methylbenzyl)-1H-pyrazol-3-yl]-1,2,4-oxadiazole]
Cc1ccc(Cn2nc(-c3nc(-c4ccc(-c5ccccc5)cc4)c[nH]3)cc2C)cc1 [Example 67, 3-(4-biphenyl-4-yl-1H-imidazol-2-yl)-5-methyl-1-(4-methylbenzyl)-1H-pyrazole]
Cc1ccc(Cn2nc(-c3nc(-c4ccc(Br)cc4)no3)cc2C)cc1 [Example 3, 3-(4-bromophenyl)-5-[5-methyl-1-(4-methylbenzyl)-1H-pyrazol-3-yl]-1,2,4-oxadiazole]
Cc1ccc(Cn2nc(-c3nc(-c4ccc(Br)cc4)co3)cc2C)cc1 [Example 75, 4-(4-bromophenyl)-2-[5-methyl-1-(4-methylbenzyl)-1H-pyrazol-3-yl]-1,3-oxazole]
Cc1ccc(Cn2nc(-c3nc(-c4ccc(C(F)(F)F)cc4)no3)cc2C)cc1 [Example 7, 5-[5-methyl-1-(4-methylbenzyl)-1H-pyrazol-3-yl]-3-[4-(trifluoromethyl)phenyl]-1,2,4-oxadiazole]
Cc1ccc(Cn2nc(-c3nc4ccc(N5CCCCC5)cc4[nH]3)cc2C)cc1 [Example 49, 2-[5-methyl-1-(4-methylbenzyl)-1H-pyrazol-3-yl]-6-piperidin-1-yl-1H-benzimidazole]
Cc1ccc(Cn2nc(-c3nc4ccccc4o3)cc2C)cc1 [Example 31, 2-[5-methyl-1-(4-methylbenzyl)-1H-pyrazol-3-yl]-1,3-benzoxazole]
Cc1ccc(Cn2nc(-c3nc(-c4ccc(N5CCCCC5)cc4)no3)cc2C)cc1 [Example 12, 1-(4-{5-[5-methyl-1-(4-methylbenzyl)-1H-pyrazol-3-yl]-1,2,4-oxadiazol-3-yl}phenyl)piperidine]
Cc1ccc(Cn2nc(-c3nc(-c4ccc(N5CCOCC5=O)cc4)no3)cc2C)cc1 [Example 26, 4-(4-{5-[5-methyl-1-(4-methylbenzyl)-1H-pyrazol-3-yl]-1,2,4-oxadiazol-3-yl}phenyl)morpholin-3-one]
